Where a SMILES comes first, the peptide text is derived from it. The star is where a group is joined. Cbz = O=C(OCc1ccccc1)*; CH2F = FC*
Key:
[1] = test system: EGFR+ Huh-7 hepatocellular carcinoma cells; assay: EGFR-directed induction of cell death in Huh-7 cells, serial dilutions of protein, crystal violet; type: cell-based; conditions: 250 ng/ml bortezomib, caspase inhibitors 10 μM, 16 h
Protocol: (§1) After 16 h, cell viability was determined using MTT staining (Colo 205) or crystal violet staining (Huh-7) and data were normalized using bortezomib-treated cells as control (mean SEM, n=3). (B) 1×10^4 Colo205 cells per well were grown in 96-well plates using medium with 0.1% FCS. […] (C) 1×10^4 Huh-7 cells per well were grown in 96-well plates and treated with 20 ng/ml bortezomib or with a combination of bortezomib and 10 μM zVADfmk.
After 16 h, cell viability was determined using crystal violet staining.
(§2) As a positive control, cells were killed with 0.25% Triton X-100. Cell death assays with Huh-7 and HepG2 cells were performed in the absence (FIG. 6, Jurkat cells) or presence of Bortezomib (FIG. 7, Huh-7: 250 ng/ml, FIG. 6, HepG2: 500 ng/ml, FIG. 18, Huh-7: 250 ng/ml), Selleck Chemicals, Houston, Tex.). Bortezomib was added 30 min prior incubation with the proapoptotic ligands to sensitize cells for the induction of cell death (FIGS. 6, 7). Alternatively, cells were preincubated for 30 min with the indicated concentrations of TRAIL fusion proteins followed by addition of serial dilutions of Bortezomib (FIG. 8). […] After 16 h incubation, cell viability was determined either by crystal violet staining (Huh-7, HepG2) or the MTT method (Jurkat) (Wuest et al., 2002). In the latter case a lysis buffer consisting of 15% SDS in DMF/H2O (1:1), pH 4.5 (with […]) acetic acid) was used.

Colo205 cells = assay: Caspase dependence of cell death in Colo205 cells, MTT; type: cell-based; conditions: 25 ng/ml bortezomib, caspase inhibitors 20 μM, 16 h
Protocol: as §1

Colo205 xenograft tumor = Colo205 xenograft tumor model
Protocol: Arrows, protein application; asterisks, bortezomib application; symbols, mean of tumor volumes 95% confidence interval (CI), n=12 tumors/treatment group.
8-week-old female NMRI nu/nu mice (Janvier) were injected s.c. with 3×10^6 Colo205 cells in 100 μl PBS at left and right dorsal sides. Treatment started 6 days after tumor cell inoculation when tumors reached about 100 mm^3. […] On day 1, 3, 5 and 7 of treatment, mice received additionally 5 μg bortezomib in 100 μl PBS i.p. three hours before protein injection. The control groups received 100 μl PBS or 5 μg bortezomib at the same time intervals. […] The Tukey's test was applied for statistics.

[2] = test system: EGFR low/negative HepG2 cells; assay: Target-independent induction of cell death, HepG2, crystal violet; type: cell-based; conditions: comparator named in value
Protocol: (§3) Cell viability was determined using crystal violet staining. Results from four independent experiments are shown (mean±S.E.M.). (B) Jurkat cells (1×10^5/well) were used for a similar experiment as described in (A). Jurkat cells were not sensitized. Results from three independent experiments are shown (mean±S.E.M.). Viability of Jurkat cells was determined using the MTT assay.
as §2

Jurkat cells = assay: Target-independent induction of cell death, Jurkat, MTT assay; type: cell-based; conditions: not sensitized; SEQ ID NO: 102 compared to KillerTRAIL
Protocol: as §3, §2

[3] = test system: Huh-7 hepatocellular carcinoma cells; assay: Cell death in Huh-7 cells, constant protein concentration, serial dilutions of Bortezomib; type: cell-based; conditions: protein concentration of 1 nM and above
Protocol: Results from three independent experiments are shown (mean±S.E.M.).
as §2

[4] = 8 daily i.p. injections of 0.45 nmol + bortezomib every second day

Molecule	block of TRAIL fusion protein-induced cell death by inhibitor [1]	block of TRAIL fusion protein-induced cell death by inhibitor (Colo205 cells)	other results
COC(=O)C[C@H](NC(=O)[C@H](C)NC(=O)[C@@H](NC(=O)OCc1ccccc1)C(C)C)C(=O)CF [zVADfmk] (Cbz-Val-Ala-Asp(OMe)-CH2F)	nearly complete block of cell death	nearly complete block of cell death	–
COC(=O)CC[C@H](NC(=O)[C@H](CC(=O)OC)NC(=O)OCc1ccccc1)C(=O)N[C@H](C(=O)N[C@@H](CC(=O)OC)C(=O)CF)C(C)C [zDEVDfmk]	nearly complete block of cell death	nearly complete block of cell death	–
CC(C)C[C@H](NC(=O)[C@H](Cc1ccccc1)NC(=O)c1cnccn1)B(O)O [Bortezomib]	–	–	effect on tumor growth (Colo205 xenograft tumor; bortezomib by itself, 5 μg i.p. on day 1, 3, 5 and 7): did not interfere with progressive tumor growth
CN1C(=O)C(Cc2c[nH]c3ccccc23)NC1=S (stereo not drawn) [necrostatin-1]	failure of necrostatin-1 to prevent or reduce cell death	failure of necrostatin-1 to prevent or reduce cell death	–
KillerTRAIL: commercially available highly active TRAIL preparation (Enzo Lifesciences / Axxora) (protein, UniProt P50591 39-281, looked up, extracellular domain) extracellular domain: TNELKQMQDKYSKSGIACFLKEDDSYWDPNDEESMNSPCWQVKWQLRQLVRKMILRTSEETISTVQEKQQNISPLVRERGPQRVAAHITGTRGRSNTLSSPNSKNEKALGRKINSWESSRSGHSFLSNLHLRNGELVIHEKGFYYIYSQTYFRFQEEIKENTKNDKQMVQYIYKYTSYPDPILLMKSARNSCWSKDAEYGLYSIYQGGIFELKENDRIFVSVTNEHLIDMDHEASFFGAFLVG	–	–	bioactivity on target negative cells, comparison in words [2]: comparable with the activity of SEQ ID NO: 96
SEQ ID NO: 104: single chain TRAIL, three copies of TRAIL 95-281 linked by (GGGS)2 linkers, N-terminal FLAG tag, no component B (protein, scTRAIL fusion protein, single chain TRAIL, three copies of TRAIL 95-281 linked by (GGGS)2 linkers, N-terminal FLAG tag, no component B) TSEETISTVQEKQQNISPLVRERGPQRVAAHITGTRGRSNTLSSPNSKNEKALGRKINSWESSRSGHSFLSNLHLRNGELVIHEKGFYYIYSQTYFRFQEEIKENTKNDKQMVQYIYKYTSYPDPILLMKSARNSCWSKDAEYGLYSIYQGGIFELKENDRIFVSVTNEHLIDMDHEASFFGAFLVGGGGSGGGSTSEETISTVQEKQQNISPLVRERGPQRVAAHITGTRGRSNTLSSPNSKNEKALGRKINSWESSRSGHSFLSNLHLRNGELVIHEKGFYYIYSQTYFRFQEEIKENTKNDKQMVQYIYKYTSYPDPILLMKSARNSCWSKDAEYGLYSIYQGGIFELKENDRIFVSVTNEHLIDMDHEASFFGAFLVGGGGSGGGSTSEETISTVQEKQQNISPLVRERGPQRVAAHITGTRGRSNTLSSPNSKNEKALGRKINSWESSRSGHSFLSNLHLRNGELVIHEKGFYYIYSQTYFRFQEEIKENTKNDKQMVQYIYKYTSYPDPILLMKSARNSCWSKDAEYGLYSIYQGGIFELKENDRIFVSVTNEHLIDMDHEASFFGAFLVG	–	–	apoptosis-inducing activity on Jurkat cells (Jurkat cells): no reactivity; induction of apoptosis when sensitized with Bortezomib [3]: nearly equally efficient in induction of complete apoptosis; effect on tumor growth (Colo205 xenograft tumor; [4]): delayed tumor growth; regression of tumors (Colo205 xenograft tumor; [4]): did not induce regression of tumors

— patent US9822179B2, “Recombinant TNF ligand family member polypeptides with antibody binding domain and uses therefor” (UNIVERSITAT STUTTGART, priority 2011, dated 2017)
